# Measurements taken from publication PMC5564600 (Oncotarget, 2017).
# What was measured:
# [1] = target: T1, catalytic JH1 domain of JAK2 (Homo sapiens, UniProt O60674); test: KINOMEscan, JAK2 JH1 domain; assay type: binding; settings: for remaining binding at 1 µM / remaining binding at 10 µM: kinase JAK2(JH1domain-catalytic); for remaining binding at 1 µM: read-out: % of control at 1 µM; for remaining binding at 10 µM: read-out: % of control at 10 µM
# T1 construct: the catalytic JH1 domains of JAK1 and JAK2; purchased Ambit Biosciences (scanMAXX KINOMEscan)
# G2019S mutant of LRRK2 = target: T2, G2019S mutant of LRRK2 (Homo sapiens, UniProt Q5S007, G2019S); test: KINOMEscan, LRRK2 G2019S; assay type: binding; settings: for remaining binding at 1 µM / remaining binding at 10 µM: kinase LRRK2(G2019S); for remaining binding at 1 µM: read-out: % of control at 1 µM; for remaining binding at 10 µM: read-out: % of control at 10 µM
# T2 construct: purchased Ambit Biosciences (scanMAXX KINOMEscan)
# PIK3C2G = target: T3, PIK3C2G (Homo sapiens, UniProt O75747); test: KINOMEscan, PIK3C2G; assay type: binding; settings: for remaining binding at 1 µM / remaining binding at 10 µM: kinase PIK3C2G; for remaining binding at 1 µM: read-out: % of control at 1 µM; for remaining binding at 10 µM: read-out: % of control at 10 µM
# T3 construct: purchased Ambit Biosciences (scanMAXX KINOMEscan)
# T3 sequence (O75747 1-1486): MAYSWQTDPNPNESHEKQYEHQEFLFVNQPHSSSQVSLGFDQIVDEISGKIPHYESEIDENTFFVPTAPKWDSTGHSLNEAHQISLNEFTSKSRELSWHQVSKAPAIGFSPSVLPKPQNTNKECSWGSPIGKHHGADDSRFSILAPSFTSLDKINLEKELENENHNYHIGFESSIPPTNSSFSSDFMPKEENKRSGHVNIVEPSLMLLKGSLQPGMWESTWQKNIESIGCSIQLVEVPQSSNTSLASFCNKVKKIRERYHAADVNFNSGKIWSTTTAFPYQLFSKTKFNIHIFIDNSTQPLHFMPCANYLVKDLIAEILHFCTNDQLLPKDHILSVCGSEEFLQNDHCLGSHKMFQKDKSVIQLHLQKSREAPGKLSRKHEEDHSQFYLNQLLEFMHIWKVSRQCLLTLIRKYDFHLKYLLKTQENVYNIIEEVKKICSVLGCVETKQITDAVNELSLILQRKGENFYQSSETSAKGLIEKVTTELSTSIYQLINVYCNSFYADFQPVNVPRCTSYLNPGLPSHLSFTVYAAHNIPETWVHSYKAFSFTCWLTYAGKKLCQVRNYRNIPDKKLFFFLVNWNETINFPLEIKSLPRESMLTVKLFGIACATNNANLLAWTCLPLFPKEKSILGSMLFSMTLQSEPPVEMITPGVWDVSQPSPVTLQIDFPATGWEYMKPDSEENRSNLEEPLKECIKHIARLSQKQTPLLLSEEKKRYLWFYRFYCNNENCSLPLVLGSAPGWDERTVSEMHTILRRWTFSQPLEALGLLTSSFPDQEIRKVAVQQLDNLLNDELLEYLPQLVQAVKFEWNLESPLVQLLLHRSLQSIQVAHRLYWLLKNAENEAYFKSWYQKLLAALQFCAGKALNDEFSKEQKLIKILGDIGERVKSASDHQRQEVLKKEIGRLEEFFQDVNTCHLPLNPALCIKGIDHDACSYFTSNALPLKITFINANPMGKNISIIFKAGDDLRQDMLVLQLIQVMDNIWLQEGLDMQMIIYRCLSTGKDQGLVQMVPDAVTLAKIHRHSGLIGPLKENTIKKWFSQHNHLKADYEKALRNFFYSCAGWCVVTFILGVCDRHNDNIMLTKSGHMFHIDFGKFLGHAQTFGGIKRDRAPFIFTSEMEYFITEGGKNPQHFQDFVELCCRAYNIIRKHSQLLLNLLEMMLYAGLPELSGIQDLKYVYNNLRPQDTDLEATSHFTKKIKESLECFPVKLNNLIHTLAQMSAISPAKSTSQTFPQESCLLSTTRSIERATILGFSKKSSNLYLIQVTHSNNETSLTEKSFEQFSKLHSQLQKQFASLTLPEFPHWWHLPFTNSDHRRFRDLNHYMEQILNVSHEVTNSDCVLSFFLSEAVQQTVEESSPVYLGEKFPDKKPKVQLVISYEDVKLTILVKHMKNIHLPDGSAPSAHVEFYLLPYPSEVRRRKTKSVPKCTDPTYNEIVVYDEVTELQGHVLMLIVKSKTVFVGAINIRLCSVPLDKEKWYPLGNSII
# panel of 442 kinases [2] = target: panel of 442 kinases (Homo sapiens, UniProt P42336, H1047L); test: biochemical; assay type: binding; settings: kinase PIK3CA(H1047L); 1 µM; read-out: % of control at 1 µM
# panel of 442 kinases [3] = target: panel of 442 kinases (Homo sapiens, UniProt P42336, C420R); test: biochemical; assay type: binding; settings: kinase PIK3CA(C420R); 1 µM; read-out: % of control at 1 µM
# panel of 442 kinases [4] = target: panel of 442 kinases (Homo sapiens, UniProt P42336, H1047Y); test: biochemical; assay type: binding; settings: kinase PIK3CA(H1047Y); 1 µM; read-out: % of control at 1 µM
# panel of 442 kinases [5] = target: panel of 442 kinases (Homo sapiens, UniProt P42336, M1043I); test: biochemical; assay type: binding; settings: kinase PIK3CA(M1043I); 1 µM; read-out: % of control at 1 µM
# panel of 442 kinases [6] = target: panel of 442 kinases (Homo sapiens, UniProt P42336, E545A); test: biochemical; assay type: binding; settings: kinase PIK3CA(E545A); 1 µM; read-out: % of control at 1 µM
# panel of 442 kinases [7] = target: panel of 442 kinases (Homo sapiens, UniProt P42336, E542K); test: biochemical; assay type: binding; settings: kinase PIK3CA(E542K); 1 µM; read-out: % of control at 1 µM
# panel of 442 kinases [8] = target: panel of 442 kinases (Homo sapiens, UniProt P42336, E545K); test: biochemical; assay type: binding; settings: kinase PIK3CA(E545K); 1 µM; read-out: % of control at 1 µM
# panel of 442 kinases [9] = target: panel of 442 kinases (Homo sapiens, UniProt P42336, I800L); test: biochemical; assay type: binding; settings: kinase PIK3CA(I800L); 1 µM; read-out: % of control at 1 µM
# panel of 442 kinases [10] = target: panel of 442 kinases (Homo sapiens, UniProt P42336, Q546K); test: biochemical; assay type: binding; settings: kinase PIK3CA(Q546K); 1 µM; read-out: % of control at 1 µM
# panel of 442 kinases [11] = target: panel of 442 kinases (Homo sapiens, UniProt P42336); test: biochemical; assay type: binding; settings: kinase PIK3CA; 1 µM; read-out: % of control at 1 µM
# PI3Kγ = PI3Kγ (Homo sapiens, UniProt P48736); test: PI3K (human) HTRF assay, PI3Kγ; assay type: biochemical; settings: ATP 10 μM, mean ± SEM
# panel of 442 kinases [12] = target: panel of 442 kinases (Homo sapiens, UniProt Q16584); test: biochemical; assay type: binding; settings: kinase MLK3; 1 µM; read-out: % of control at 1 µM
smiles,measurement,setting,value
Nc1cc(C(F)(F)F)c(-c2cc(N3CCOCC3)nc(N3CCOCC3)n2)cn1 [Buparlisib],remaining binding at 1 µM,[1],63%
same,remaining binding at 10 µM,[1],79%
same,remaining binding at 1 µM,G2019S mutant of LRRK2,88%
same,remaining binding at 10 µM,G2019S mutant of LRRK2,80%
same,remaining binding at 1 µM,PIK3C2G,97%
same,remaining binding at 10 µM,PIK3C2G,35%
"Cn1c(=O)n(-c2ccc(C(C)(C)C#N)cc2)c2c3cc(-c4cnc5ccccc5c4)ccc3ncc21 [Dactolisib, 2-methyl-2-[4-(3-methyl-2-oxo-8-quinolin-3-yl-2,3-dihydroimidazo[4,5-c]quinolin-1-yl)-phenyl] propionitrile]",inhibition at 1 µM,[1]; 1 μM,> 80%
same,remaining binding at 1 µM,[1],8.2%
same,remaining binding at 1 µM,G2019S mutant of LRRK2,53%
same,remaining activity at 1 µM,panel of 442 kinases [2],0.15%
same,remaining activity at 1 µM,panel of 442 kinases [3],8.1%
same,remaining activity at 1 µM,panel of 442 kinases [4],3.8%
same,remaining activity at 1 µM,panel of 442 kinases [5],1.4%
same,remaining activity at 1 µM,panel of 442 kinases [6],9.2%
same,remaining activity at 1 µM,panel of 442 kinases [7],6.4%
same,remaining activity at 1 µM,panel of 442 kinases [8],5.5%
same,remaining activity at 1 µM,panel of 442 kinases [9],0%
same,inhibition at 1 µM,PIK3C2G; 1 μM,> 80%
same,remaining binding at 1 µM,PIK3C2G,0%
COc1ncc(-c2ccc3nccc(-c4ccnnc4)c3c2)cc1NS(=O)(=O)c1ccc(F)cc1F [Omipalisib],remaining binding at 1 µM,[1],90%
same,remaining binding at 1 µM,G2019S mutant of LRRK2,87%
same,remaining activity at 1 µM,panel of 442 kinases [2],5.6%
same,remaining activity at 1 µM,panel of 442 kinases [3],0%
same,remaining activity at 1 µM,panel of 442 kinases [4],0%
same,remaining activity at 1 µM,panel of 442 kinases [5],0%
same,remaining activity at 1 µM,panel of 442 kinases [10],0.1%
same,remaining activity at 1 µM,panel of 442 kinases [6],0%
same,remaining activity at 1 µM,panel of 442 kinases [7],0.05%
same,remaining activity at 1 µM,panel of 442 kinases [8],0.1%
same,remaining activity at 1 µM,panel of 442 kinases [9],3.8%
same,remaining activity at 1 µM,panel of 442 kinases [11],0%
same,off-target binding to PIK3C2G,PIK3C2G; 1 μM,non-selective
same,remaining binding at 1 µM,PIK3C2G,0%
same,IC50,PI3Kγ,1.2 ± 0.2 nM
"CS(=O)(=O)N1CCN(Cc2cc3nc(-c4cccc5[nH]ncc45)nc(N4CCOCC4)c3s2)CC1 [Pictilisib, 2-(1H-indazol-4-yl)-6-(4-methanesulfonyl-piperazin-1-ylmethyl)-4-morpholin-4-yl-t hieno[3,2-d]pyrimidine]",remaining binding at 1 µM,[1],100%
same,remaining binding at 10 µM,[1],26%
same,remaining binding at 1 µM,G2019S mutant of LRRK2,82%
same,remaining binding at 10 µM,G2019S mutant of LRRK2,51%
same,off-target activity against PIK3C2G,PIK3C2G; 10 μM,active
same,remaining binding at 1 µM,PIK3C2G,32%
same,remaining binding at 10 µM,PIK3C2G,2.1%
"FC(F)c1nc2ccccc2n1-c1nc(N2CCOCC2)nc(N2CCOCC2)n1 [ZSTK474, 2-(difluoromethyl)-1-[4,6-di(4-morpholinyl)-1,3,5-triazin-2-yl]-1H-benzimidazole]",remaining binding at 1 µM,[1],100%
same,binding to LRRK2 G2019S,G2019S mutant of LRRK2; 1 μM,99.7%
same,remaining binding at 1 µM,G2019S mutant of LRRK2,0.3%
same,remaining activity at 1 µM,panel of 442 kinases [12],56%
same,off-target binding to PIK3C2G,PIK3C2G; 1 μM,high binding affinity
same,remaining binding at 1 µM,PIK3C2G,0%
